Tested on: Human Epidermal Keratinocytes, adult (HEKa)
Assay: Keratinocyte adherence on coated surfaces, scanning electron microscopy
Assay type: cell-based
Conditions: collagen I scaffolds, with PLL as intermediate layer vs without PLL and other parts of collagen VI; FIG. 12
Description: (§1) Collagen I scaffolds and titanium surfaces were coated with collagen VI microfibrils, each of collagen VI alpha 1-3 chains and the bioactive collagen VI peptides GVR28, FYL25, FFL25, VTT30, and SFV33 as described in Examples 1 and 2 above.
(§2) Adherence of fibroblasts or keratinocytes was assessed by scanning electron microscopy.
(§3) Cells and culture conditions—Keratinocytes (Human Epidermal Keratinocytes, adult (HEKa), C-005-5C, Gibco) and fibroblasts (Human Dermal Fibroblasts, adult (HDFa), C0135C, Gibco) were purchased from Thermo Fisher Scientific, Waltham, USA. Cryopreserved cells were thawed according to the manufacturer's protocol and seeded on three 75 mL tissue culture flasks, each containing 15 mL of keratinocyte basal medium (KBM; KBM Gold, Lonza Group AG, Basel, Switzerland). The medium was supplemented with transferrin, recombinant human epidermal growth factor (rhEGF), bovine pituitary extract (BPE), antibiotics (Gentamycin: GA-1000), insulin, epinephrine and hydrocortisone (PeproTech, New Jersey, USA). For fibroblasts, complete growth medium consisting of Dulbecco's modified eagle medium (D-MEM) with 100 mM sodium pyruvate (PAA Laboratories, Pasching, Austria), supplemented with 10% fetal bovine serum (FBS) (PAA Laboratories, Pasching, Austria) and 2 mM L-glutamine (Invitrogen, Carlsbad, USA), was used. Medium was changed every day and substituted with additional rhEGF at a final dilution of 1:1000. The cells were incubated for seven days until they reached confluency. The cells were harvested by trypsinization (TrypLE™ Select (1x), Life Technologies Corporation, Carlsbad, USA) and transferred into freezing medium, containing 1% BSA (Sigma Aldrich, St. Louis, USA) and 10% DMSO (Sigma-Aldrich, St. Louis, USA). 1 mL aliquots of the cell suspension were transferred into cryotubes. The cryotubes were transferred to the freezer at −80° C. for 24 hours and then finally stored in liquid nitrogen until further use.
(§4) Cell attachment—Cells were gently thawed and counted in a hemocytometer using trypan blue (Fisher Scientific, Waltham, USA) to estimate the number of live/dead cells. They were finally diluted in appropriate media to final cell concentrations of 16700 viable cells/mL. 300 μL cell solution were added on top of punched out titanium or collagen I scaffold samples, followed by incubation at 37° C. for 1 hour. Growth medium was removed and the cells were gently washed twice with PBS. The cells were then fixed by the addition of 4% formaldehyde in PBS, followed by incubation at 4° C. for 20 minutes. Finally, cells were rinsed three times in PBS and stored in 3 mL PBS until further evaluation by scanning electron microscopy.

Substance	keratinocyte adherence on collagen I scaffolds
VTTEIRFADSKRKSVLLDKIKNLQVALTSK (VTT30 peptide)	considerably enhanced
collagen VI alpha-3 chain: alpha-3 polypeptide chain of collagen type VI (UniProt P12111)	considerably enhanced
GVRPDGFAHIRDFVSRIVRRLNIGPSKV (GVR28 peptide)	considerably enhanced
FFLKDFSTKRQIIDAINKVVYKGGR (FFL25 peptide)	considerably enhanced

Same assay, conditions: titanium surface, with PLL as intermediate layer vs without PLL and other parts of collagen VI; FIG. 8

Substance	keratinocyte adherence on titanium surfaces
VTTEIRFADSKRKSVLLDKIKNLQVALTSK (VTT30 peptide)	considerably enhanced
collagen VI alpha-3 chain: alpha-3 polypeptide chain of collagen type VI (UniProt P12111)	considerably enhanced
GVRPDGFAHIRDFVSRIVRRLNIGPSKV (GVR28 peptide)	considerably enhanced
FFLKDFSTKRQIIDAINKVVYKGGR (FFL25 peptide)	considerably enhanced

Tested on: Staphylococcus aureus
Assay: Gram-positive bacterial killing efficiency on coated surfaces, scanning electron microscopy
Assay type: cell-based
Conditions: collagen I scaffolds 1 mm / 2 mm, with PLL as intermediate layer vs without PLL and other parts of collagen VI; FIG. 10
Description: (§5) Collagen I scaffolds and titanium surfaces were coated with collagen VI microfibrils, each of collagen VI alpha 1-3 chains and the bioactive collagen VI peptides GVR28, FYL25, FFL25, VTT30, and SFV33 as described in Examples 1 and 2 above, respectively.
(§6) Killing efficiency of the gram-negative Pseudomonas aeruginosa bacteria and the gram-positive Staphylococcus aureus were assessed by scanning electron microscopy. For killing efficiency and scanning electron microscopy experiments, titanium scaffold discs with a size of 5 mm and a thickness of 0.25 mm, and collagen I scaffold discs with a size of 5 mm and a thickness of 1 mm (thin scaffold) or 2 mm (thick scaffold), respectively, were punched out and coated with PLL as described in Examples 1 and 2 above. They were subsequently incubated with 500 μL of bacterial suspension (5×10^8 cfu/ml bacteria) and incubated for 2 hours at 37° C. in a humid atmosphere containing 5% CO2.
(§7) The discs were then prepared for scanning electron microscopy. In short, samples were incubated overnight at 4° C. with fixation buffer (0.15M sodium cacodylate, pH 7.4, containing 2.5% v/v glutaraldehyde) and subsequently washed with cacodylate buffer (0.15M sodium cacodylate, pH 7.4), followed by a standard dehydration series with ethanol-water mixtures. Specimens were then dried in liquid CO2, using ethanol as an intermediate solvent. Samples were mounted on aluminium discs and coated with 20 nm gold/palladium. Finally, samples were investigated with an XL 30 FEG scanning electron microscope and images were processed by AnalySIS ITEM software. Viable and non-viable bacteria were directly identified and quantified under in the scanning electron microscope due to their structural differences.

Substance	killing of Staphylococcus aureus on collagen I scaffolds
SFVARNTFKRVRNGFLMRKVAVFFSNTPTRASP (SFV33 peptide)	considerably enhanced
collagen VI alpha-3 chain: alpha-3 polypeptide chain of collagen type VI (UniProt P12111)	considerably enhanced

Same assay, conditions: titanium surface, with PLL as intermediate layer vs without PLL and other parts of collagen VI; FIG. 6

Substance	killing of Staphylococcus aureus on titanium surfaces
SFVARNTFKRVRNGFLMRKVAVFFSNTPTRASP (SFV33 peptide)	considerably enhanced
collagen VI alpha-3 chain: alpha-3 polypeptide chain of collagen type VI (UniProt P12111)	considerably enhanced

Tested on: collagen I scaffolds
Assay: 131-iodine coating efficiency (binding) assay on collagen I scaffolds with/without PLL precoating
Conditions: with PLL as intermediate layer vs without PLL / controls, 1 mm thin and 2 mm thick scaffolds
Description: Materials—MDS Collagen was obtained from MedSkin Solutions Dr. Suwelack A G (MDS). 1 mm thickness refers to thin, and 2 mm thickness refers to thick collagen scaffold, respectively. c-poly-L-lysine hydrobromide (PLL, 30 000-150 000 g/mol) was purchased from Sigma-Aldrich, St. Louis, USA. Collagen VI and its derived peptides were prepared as described in [18]. LL-37 was a kind gift of Dr. Artur Schmidtchen, University of Lund. NAT26, HKH20, GGL27 were kind gifts of Dr. Inga-Maria Frick, University of Lund. α defensins 3-6 and β defensins 1-4 were kind gifts of Dr. Arne Egesten, University of Lund. Proteins were radiolabeled with 131-iodine according to standard protocols prior to coating assays on collagen scaffold surfaces.
Biomaterial surface coating with PLL—collagen scaffold discs with a diameter of 5 mm and thickness of 2 mm (thick scaffold) and 1 mm (thin scaffold), respectively, were punched out from a larger sheet (approximately 10 cm×10 cm). Prior to collagen coating, 150 μl poly-L-lysine hydrobromide solution (0.2 mg/ml) were applied on the collagen scaffold discs by incubation at 60° C. for 2 h. Afterwards the discs were washed twice in distilled water to remove unbound PLL, air-dried and stored at room temperature.
(§8) Biomaterial surface coating with bioactive collagen VI molecules—collagen scaffold discs, after prior treatment with PLL, were put into 24-well cell culture plates (TPP, Trasadingen, Switzerland). They were coated by incubation with 150 μl bovine collagen VI microfibrils (concentration 15 μM), or with 150 μl collagen type VI peptides (concentration 3 μM), or with 150 ml LL-37, NAT26, HKH20, GGL27, α defensins 3-6 and β defensins 1-4 at 4° C. for 2 h, followed by rinsing with distilled water and air-drying. The coating efficiencies of the different biomolecules were assessed by determining the ratio between bound and free 131-iodine radioactivity associated with collagen scaffolds by determining radioactivity as cpm values in a γ-counter.

Substance	coating efficiency (binding) on collagen I scaffolds
SFVARNTFKRVRNGFLMRKVAVFFSNTPTRASP (SFV33 peptide)	superior coating
FYLKTYRSQAPVLDAIRRLRLRGGS (FYL25 peptide)	superior coating
VTTEIRFADSKRKSVLLDKIKNLQVALTSK (VTT30 peptide)	superior coating
collagen VI alpha-3 chain: alpha-3 polypeptide chain of collagen type VI (UniProt P12111)	considerably enhanced
GVRPDGFAHIRDFVSRIVRRLNIGPSKV (GVR28 peptide)	superior coating
FFLKDFSTKRQIIDAINKVVYKGGR (FFL25 peptide)	superior coating

Same assay, conditions: with PLL as intermediate layer vs without PLL / controls, 1 mm thin and 2 mm thick scaffolds, listed as collagen type VI alpha-3 chain

Substance	coating efficiency (binding) on collagen I scaffolds
collagen VI alpha-3 chain: alpha-3 polypeptide chain of collagen type VI (UniProt P12111)	superior coating

Tested on: Pseudomonas aeruginosa
Assay: Gram-negative bacterial killing efficiency on coated surfaces, scanning electron microscopy
Assay type: cell-based
Conditions: collagen I scaffolds 1 mm / 2 mm, with PLL as intermediate layer vs without PLL and other parts of collagen VI; FIG. 9
Description: as §5, §6, §7

Substance	killing of Pseudomonas aeruginosa on collagen I scaffolds
SFVARNTFKRVRNGFLMRKVAVFFSNTPTRASP (SFV33 peptide)	considerably enhanced
collagen VI alpha-3 chain: alpha-3 polypeptide chain of collagen type VI (UniProt P12111)	considerably enhanced

Same assay, conditions: titanium surface, with PLL as intermediate layer vs without PLL and other parts of collagen VI; FIG. 5

Substance	killing of Pseudomonas aeruginosa on titanium surfaces
SFVARNTFKRVRNGFLMRKVAVFFSNTPTRASP (SFV33 peptide)	considerably enhanced
collagen VI alpha-3 chain: alpha-3 polypeptide chain of collagen type VI (UniProt P12111)	considerably enhanced

Tested on: Human Dermal Fibroblasts, adult (HDFa)
Assay: Fibroblast adherence on coated surfaces, scanning electron microscopy
Assay type: cell-based
Conditions: collagen I scaffolds, with PLL as intermediate layer vs without PLL and other parts of collagen VI; measured in cells/mm^2; FIG. 11
Description: as §1, §2, §3, §4

Substance	fibroblast adherence on collagen I scaffolds
VTTEIRFADSKRKSVLLDKIKNLQVALTSK (VTT30 peptide)	considerably enhanced
collagen VI alpha-3 chain: alpha-3 polypeptide chain of collagen type VI (UniProt P12111)	considerably enhanced
GVRPDGFAHIRDFVSRIVRRLNIGPSKV (GVR28 peptide)	considerably enhanced
FFLKDFSTKRQIIDAINKVVYKGGR (FFL25 peptide)	considerably enhanced

Same assay, conditions: titanium surface, with PLL as intermediate layer vs without PLL and other parts of collagen VI; measured in cells/mm^2; FIG. 7

Substance	fibroblast adherence on titanium surfaces
VTTEIRFADSKRKSVLLDKIKNLQVALTSK (VTT30 peptide)	considerably enhanced
collagen VI alpha-3 chain: alpha-3 polypeptide chain of collagen type VI (UniProt P12111)	considerably enhanced
GVRPDGFAHIRDFVSRIVRRLNIGPSKV (GVR28 peptide)	considerably enhanced
FFLKDFSTKRQIIDAINKVVYKGGR (FFL25 peptide)	considerably enhanced

Tested on: not listed separately
Assay: 131-iodine coating efficiency (binding) assay on titanium surfaces with/without PLL precoating
Conditions: with PLL as intermediate layer vs without PLL / controls
Description: Materials—Titanium discs with a diameter and thickness of 5 mm and 0.25 mm, respectively, and with a maximum average roughness (Ra) of 0.8 μm, were punched out from a commercially available titanium foil (Alfa Aesar GmbH & Co. KG, Karlsruhe, Germany). ε-poly-L-lysine hydrobromide (PLL, 30,000-150,000 g/mol) was purchased from Sigma-Aldrich, St. Louis, USA. Collagen VI and its derived peptides were prepared as described in [18]. LL-37 was a kind gift of Dr. Artur Schmidtchen, University of Lund. NAT26, HKH20, GGL27 were kind gifts of Dr. Inga-Maria Frick, University of Lund. α defensins 3-6 and β defensins 1-4 were kind gifts of Dr. Arne Egesten, University of Lund. Proteins were radiolabeled with 131-iodine according to standard protocols prior to coating assays on collagen scaffold surfaces.
Biomaterial surface coating with PLL—Titanium discs were degreased with chloroform and 97% ethanol, followed by rinsing with distilled water, and air-drying at room temperature. Subsequently, prior to collagen coating, 150 μl poly-L-lysine hydrobromide (70,000-150,000 g/mol, Sigma-Aldrich, St. Louis, USA, 0.2 mg/ml) were applied on desired titanium discs by incubation at 60° C. for 2 hours. Afterwards, the titanium was washed twice in distilled water to remove unbound PLL, air-dried and stored at room temperature.
as §8, with “molecules—Titanium” for “molecules—collagen scaffold”, “μl” for “μl bovine collagen VI microfibrils (concentration 15 μM), or with 150 μl”, “μM),” for “μM), or with 150 ml LL-37, NAT26, HKH20, GGL27, α defensins 3-6 and β defensins 1-4”, “hours,” for “h,”, “titanium discs” for “collagen scaffolds”

Substance	coating efficiency (binding) on titanium surfaces
SFVARNTFKRVRNGFLMRKVAVFFSNTPTRASP (SFV33 peptide)	superior coating
FYLKTYRSQAPVLDAIRRLRLRGGS (FYL25 peptide)	superior coating
VTTEIRFADSKRKSVLLDKIKNLQVALTSK (VTT30 peptide)	superior coating
collagen VI alpha-3 chain: alpha-3 polypeptide chain of collagen type VI (UniProt P12111)	considerably enhanced
GVRPDGFAHIRDFVSRIVRRLNIGPSKV (GVR28 peptide)	superior coating
FFLKDFSTKRQIIDAINKVVYKGGR (FFL25 peptide)	superior coating

Same assay, conditions: with PLL as intermediate layer vs without PLL / controls, listed as collagen type VI alpha-3 chain

Substance	coating efficiency (binding) on titanium surfaces
collagen VI alpha-3 chain: alpha-3 polypeptide chain of collagen type VI (UniProt P12111)	superior coating

— patent US20220296669A1, “NOVEL COMPOSITIONS AND USES THEREOF” (priority 2019, published 2022)
